Source: patent US20210284621A1 (priority 2018, published 2021)

Test system: LPS-induced PBMCs
Assay: Inflammatory cytokine release from LPS-induced PBMCs (Luminex)
Type: cell-based, human
Conditions: fold change from LPS-treated PBMCs, compounds 10 μM (DEX 1 μg/ml) 2 h, then LPS 0.1 μg/ml 24 h, negative = reduced
In short: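 Human PBMCs from healthy donors pretreated 2 hours with compound at 10 μM (triplicate), then stimulated with 0.1 μg/ml LPS for 24 hours. Supernatant cytokines measured by magnetic Luminex; values given as fold change versus LPS-treated PBMCs, negative meaning reduction; cytotoxicity also assessed.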

[1] = OOR = out of standard curve range

SMILES: CCCCCCC(C)(C)c1cc(O)c2c(c1)OC(C)(C)[C@@H]1CC=C(C(=O)NC(C)(C)CCO)C[C@@H]21 [Compound 15, (6aR,10aR)-1-Hydroxy-N-(4-hydroxy-2-methylbutan-2-yl)-6,6-dimethyl-3-(2-methyloctan-2-yl)-6a,7,10,10a-tetrahydro-6H-benzo[c]chromene-9-carboxamide]
- IL17A: −3.1 fold change
- IL-1β: −5.9 fold change
- IL-4: −2.7 fold change
- IL-6: −107.7 fold change
- IL-8: −2.4 fold change
- IL-10: −299.9 fold change
- MCP-1: −213.2 fold change
- TNFα: −75.9 fold change
- IL-12 (p70) [1]: OOR
- L-31 [1]: OOR
